Each structure is given as a SMILES string. ≈ marks a conversion by molar mass, not a printed value.

Data set [1] relates to SARS-CoV-2 early Wuhan strain (CMC-1). As to the kind of experiment: microbe, parasite or virus in culture. The data set is classed as cell-based.
A further data set relates to VERO E6 cell line. Particulars: Tables 1, 2 and FIGS. 3A, 3B.
Another data set relates to SARS-CoV. The following applies: cited from earlier work.
In data set [2] the test system is SARS-CoV-2 (COVID-19 disease). As to the kind of experiment: Treatment of SARS-CoV-2 positive patients with oral Nystatin tablets.

As a reminder, the IC50 is the concentration needed to halve the response being measured. Low readings indicate inhibition by little substance, high ones a need for much substance. As to `C[C@@H]1[C@H](O)[C@@H](C)/C=C/C=C/CC/C=C/C=C/C=C/C=C/[C@H](OC2O[C@@H](C)[C@H](O)[C@@H](N)[C@H]2O)C[C@@H]2OC(O)(C[C@@H](O)[C@H](O)CC[C@@H](O)C[C@@H](O)C[C@@H](O)CC(=O)O[C@H]1C)C[C@H](O)[C@H]2C(=O)O` (some centres unmarked) [Nystatin, nystatin], the “microscopic image of tissue culture at the end of the incubation period” value in data set [1] (CMC-1 virus treated with 60 μg/ml nystatin, FIG. 4C) is “both cells with lysed and intact morphology can be seen”. Further, the IC50 in data set [1] (Severe acute respiratory syndrome coronavirus 2, Vero C1008) is 60 µg/mL (≈ 64.8 µM). Besides, the “toxicity of nystatin itself to the cultured cells” value with VERO E6 cell line is reported as “toxic to the cultured cells”. In addition, in the data set on SARS-CoV, the “effectiveness against SARS-CoV in vivo” value is “not proved to be effective”. Moreover, the “course of complaints under treatment” value in data set [2] (Patient 1, 3×2 Nystatin tablets (500,000 IU) per day for 10 days) was “complaints steadily decreased and disappeared after 10 days”; in data set [2] (Patient 2, 3×2 Nystatin tablets (500,000 IU) per day for 15 days) it was “free of complaints”; in data set [2] (Patient 3, 3×2 Nystatin tablets (500,000 IU) per day for 15 days), “free of complaints”. Moreover, the body temperature in data set [2] (Patient 4, 9 Apr. 2021 (day 9), one day after start of Nystatin, before 39-39.8° C.) was found to be 37.5 °C; in data set [2] (Patient 4, 10 Apr. 2021 (day 10)), 36.9 °C; in data set [2] (Patient 4, 11 Apr. 2021 (day 11)), 36.3 °C. In data set [2] (Patient 4, Nystatin from 8 Apr. 2021, 3×2 tablets daily, state on 14 Apr. 2021), the state after treatment result is reported as ““post-covid” asymptomatic state”.

The values above are taken from US20240207297A1 (priority 2021, published 2024).
